Where two headings read alike, the source gives them in different places. Where only a bound is given, the exact number is not on record here.

Usually IC50 stands for the concentration needed to halve the response being measured.

One series concerns the target T1, PARP2 (Homo sapiens, UniProt Q9UGN5).
T1 construct: made in house
Briefly: biochemical. The note with it: > = less than 50% inhibition at highest concentration; ≫ = no inhibition; read-out: PARP2 IC50. Type of series: biochemical.

Series [1] concerns the target T2, TNKS2 (Homo sapiens, UniProt Q9H2K2).
T2 sequence (Q9H2K2 1-1166): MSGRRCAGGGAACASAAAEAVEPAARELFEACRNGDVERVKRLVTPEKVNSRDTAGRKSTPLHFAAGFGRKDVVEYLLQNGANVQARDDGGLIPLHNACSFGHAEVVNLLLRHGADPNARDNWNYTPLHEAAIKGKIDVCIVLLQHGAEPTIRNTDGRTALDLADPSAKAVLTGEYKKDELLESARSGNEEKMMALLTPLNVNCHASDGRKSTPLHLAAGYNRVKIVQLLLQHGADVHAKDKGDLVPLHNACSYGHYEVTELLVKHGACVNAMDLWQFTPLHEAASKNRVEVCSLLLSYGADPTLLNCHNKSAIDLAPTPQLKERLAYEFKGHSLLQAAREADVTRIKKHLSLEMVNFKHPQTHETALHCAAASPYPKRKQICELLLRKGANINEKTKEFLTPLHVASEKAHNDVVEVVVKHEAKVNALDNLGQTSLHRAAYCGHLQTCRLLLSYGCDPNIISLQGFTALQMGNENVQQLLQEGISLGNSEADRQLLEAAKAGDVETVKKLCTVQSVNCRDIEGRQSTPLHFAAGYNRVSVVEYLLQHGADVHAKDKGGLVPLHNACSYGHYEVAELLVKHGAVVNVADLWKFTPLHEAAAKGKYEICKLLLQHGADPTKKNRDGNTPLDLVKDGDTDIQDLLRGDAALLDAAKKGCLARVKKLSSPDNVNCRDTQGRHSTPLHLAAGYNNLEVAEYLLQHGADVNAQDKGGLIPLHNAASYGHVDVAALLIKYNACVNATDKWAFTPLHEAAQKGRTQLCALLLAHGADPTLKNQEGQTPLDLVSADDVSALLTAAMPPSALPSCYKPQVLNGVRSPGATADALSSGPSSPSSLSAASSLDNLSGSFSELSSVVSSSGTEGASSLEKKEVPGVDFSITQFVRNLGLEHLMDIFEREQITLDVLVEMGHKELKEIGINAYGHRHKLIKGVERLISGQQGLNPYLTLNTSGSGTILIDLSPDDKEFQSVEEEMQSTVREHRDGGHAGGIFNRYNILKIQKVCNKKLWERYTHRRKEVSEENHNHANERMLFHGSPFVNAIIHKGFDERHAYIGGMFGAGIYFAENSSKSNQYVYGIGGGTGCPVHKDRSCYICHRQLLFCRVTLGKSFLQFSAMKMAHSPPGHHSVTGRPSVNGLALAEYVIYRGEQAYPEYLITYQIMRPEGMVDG
Nature of the series: biochemical. The conditions noted are these: read-out: TNKS2 IC50; > = less than 50% inhibition at highest concentration. The protocol: The proteins used in Tables 1–3 were produced as described earlier. Dockerin constructs to allow enhanced activity assays for mono-ARTs (Table 4) were produced in Escherichia coli with an N-terminal maltose binding protein (MBP) and a C-terminal dockerin domain from Hungateiclostridium thermocellum Cel48s as described recently.[47]
Inhibition experiments were performed using a homogenous assay measuring NAD+ consumption.[80]−[82] Reactions were carried out in quadruplicate, and IC50 curves were fitted using sigmoidal dose response curve (four variables) in GraphPad Prism version 8.02. […] Assay conditions for PARP2, TNKS2, PARP10, and PARP15 (Tables 1–3) were recently reported.[44] The conditions for the proximity-enhanced mono-ART assays (Table 4) were also reported recently.[47] PARP6 (400 nM) inhibition was measured using the standard buffer (50 mM sodium phosphate pH 7.0) for the enhanced activity assay using 500 nM NAD^+ and 18 h incubation in r.t..

The next series concerns HEK293T cells. Nature of the series: Cell viability assay (colorimetric WST-1). Type of series: cell-based, human. The conditions noted are these: HEK293T, 100, 50 and 10 μM, 24 h. How it is done:
Cell viability was assessed by colorimetric WST-1 (Cellpro-Roche, Sigma-Aldrich) assay following manufacturer’s instructions. […] Also, DMSO and 10 mM hydroxyurea (Sigma) were used as internal controls for induced cell toxicity. […] Thereafter, WST-1 reagent was pipetted followed by 2 h incubation and absorbance measuring by a Tecan Infinite M1000 or a Tecan Spark (Tecan) plate reader. The assay was performed in triplicate and repeated at least three times. Data were normalized to DMSO control.

Another series concerns PARP7. The note with it: Figure 1 ref 40; cited from earlier work.
The target of another series is T3, PARP15 (Homo sapiens, UniProt Q460N3).
T3 construct: made in house
T3 sequence (Q460N3 1-678): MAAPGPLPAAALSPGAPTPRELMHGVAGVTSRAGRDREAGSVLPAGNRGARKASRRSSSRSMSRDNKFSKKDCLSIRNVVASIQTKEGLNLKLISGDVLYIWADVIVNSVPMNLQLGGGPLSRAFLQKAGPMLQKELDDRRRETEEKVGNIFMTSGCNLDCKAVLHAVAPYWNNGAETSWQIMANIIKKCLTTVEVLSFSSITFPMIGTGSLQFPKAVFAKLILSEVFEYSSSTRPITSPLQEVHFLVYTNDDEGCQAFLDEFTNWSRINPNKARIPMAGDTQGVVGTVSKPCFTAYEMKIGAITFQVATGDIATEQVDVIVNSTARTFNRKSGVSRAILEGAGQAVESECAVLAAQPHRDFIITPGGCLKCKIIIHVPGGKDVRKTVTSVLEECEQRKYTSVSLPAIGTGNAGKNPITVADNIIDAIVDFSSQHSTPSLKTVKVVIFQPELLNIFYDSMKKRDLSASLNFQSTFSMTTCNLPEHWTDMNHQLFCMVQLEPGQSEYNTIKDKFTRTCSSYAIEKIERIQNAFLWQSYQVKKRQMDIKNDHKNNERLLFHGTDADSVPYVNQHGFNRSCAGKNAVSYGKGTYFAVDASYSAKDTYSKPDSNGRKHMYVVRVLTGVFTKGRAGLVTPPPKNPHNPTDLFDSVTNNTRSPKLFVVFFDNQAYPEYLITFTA
Briefly: biochemical. Type of series: biochemical.

Series [2] addresses T4, PARP10 (Homo sapiens, UniProt Q53GL7).
T4 construct: made in house
T4 sequence (Q53GL7 1-1025): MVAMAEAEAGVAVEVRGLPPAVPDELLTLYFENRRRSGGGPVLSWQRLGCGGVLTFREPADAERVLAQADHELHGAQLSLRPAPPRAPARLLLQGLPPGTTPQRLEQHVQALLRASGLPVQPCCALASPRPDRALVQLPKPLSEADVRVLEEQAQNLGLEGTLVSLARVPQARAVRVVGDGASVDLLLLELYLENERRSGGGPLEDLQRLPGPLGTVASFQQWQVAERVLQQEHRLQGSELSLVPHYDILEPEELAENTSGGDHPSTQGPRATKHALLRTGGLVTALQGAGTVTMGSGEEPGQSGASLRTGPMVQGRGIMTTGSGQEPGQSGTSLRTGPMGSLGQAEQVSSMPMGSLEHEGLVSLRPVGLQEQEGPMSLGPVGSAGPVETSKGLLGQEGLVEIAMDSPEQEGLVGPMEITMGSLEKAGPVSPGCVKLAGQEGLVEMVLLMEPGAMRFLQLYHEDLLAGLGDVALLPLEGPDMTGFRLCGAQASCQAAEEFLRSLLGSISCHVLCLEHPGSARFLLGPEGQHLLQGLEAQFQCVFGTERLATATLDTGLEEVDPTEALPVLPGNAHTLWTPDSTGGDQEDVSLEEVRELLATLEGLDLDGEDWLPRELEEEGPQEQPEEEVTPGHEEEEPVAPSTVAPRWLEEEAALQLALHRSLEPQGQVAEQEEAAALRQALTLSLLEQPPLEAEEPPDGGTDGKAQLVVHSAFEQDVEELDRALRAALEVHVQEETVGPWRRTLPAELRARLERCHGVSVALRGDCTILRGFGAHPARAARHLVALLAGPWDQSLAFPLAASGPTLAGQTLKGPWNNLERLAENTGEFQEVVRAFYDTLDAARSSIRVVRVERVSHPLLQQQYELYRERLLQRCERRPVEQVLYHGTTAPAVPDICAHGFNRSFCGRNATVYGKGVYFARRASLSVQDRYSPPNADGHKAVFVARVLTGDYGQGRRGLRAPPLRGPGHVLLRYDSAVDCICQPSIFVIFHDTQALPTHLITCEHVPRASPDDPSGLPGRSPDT
Nature of the series: biochemical. Type of series: biochemical.

For another series, the system named is TNKS1/2. The conditions noted are these: Figure 1; cited from earlier work.
Series [3] concerns the target T4, PARP10. Nature of the series: Cellular MARylation assay (immunoblot of PARP10 auto-MARylation). Type of series: cell-based. The conditions noted are these: 10 μM, 16 h, HeLa cells. How it is done:
Cells were lysed in RIPA lysis buffer [10 mM Tris pH 7.4; 150 mM NaCl; 1% NP-40; 1% desoxycholate; 0,1% SDS; protease inhibitor cocktail (Sigma-Aldrich) and 10 μM olaparib (Selleck Chemicals)], and lysates were analyzed via SDS-PAGE and immunoblotting using specific anti-PARP10 (Eurogentec),[93] anti-MAR/PAR (Cell Signaling, E6F6A, anti-poly/Mono-ADP-ribose antibody), and anti-α-tubulin (B 5-1-2, Sigma-Aldrich) antibodies.
In general terms: In western blotting, separated proteins are transferred to a membrane and probed.

The subject of another series is PARP11. The note with it: Figure 1 ref 42; cited from earlier work.
The subject of series [4] is PARP10. The note with it: Figure 1 ref 35; cited from earlier work.
For series [5], the system named is TNKS2. The note with it: Figure 1 ref 19; cited from earlier work.
Setting [6] is: standard assay (Tables 1-3), * value limited by the protein concentration used, > less than 50% inhibition, ≫ no inhibition at the concentration, read-out: PARP15 IC50.

T1 sequence (Q9UGN5 whole entry): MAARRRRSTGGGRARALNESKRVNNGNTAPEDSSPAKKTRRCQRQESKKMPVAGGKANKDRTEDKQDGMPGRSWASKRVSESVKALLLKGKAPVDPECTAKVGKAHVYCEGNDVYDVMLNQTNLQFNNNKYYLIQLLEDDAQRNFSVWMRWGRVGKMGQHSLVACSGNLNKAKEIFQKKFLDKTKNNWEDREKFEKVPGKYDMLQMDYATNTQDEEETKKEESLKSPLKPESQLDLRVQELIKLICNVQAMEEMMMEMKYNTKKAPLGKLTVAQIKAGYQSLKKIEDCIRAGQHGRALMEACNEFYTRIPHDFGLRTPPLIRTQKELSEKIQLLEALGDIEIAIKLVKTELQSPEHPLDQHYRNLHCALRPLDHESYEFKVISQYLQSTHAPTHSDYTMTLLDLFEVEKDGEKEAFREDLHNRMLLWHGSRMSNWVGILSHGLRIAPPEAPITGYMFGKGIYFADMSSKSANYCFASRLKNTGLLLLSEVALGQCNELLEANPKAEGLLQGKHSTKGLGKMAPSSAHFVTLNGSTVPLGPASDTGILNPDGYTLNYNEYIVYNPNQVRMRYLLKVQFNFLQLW

With `Oc1ccc(O)c2c1sc1nncn12` [Compound 18, [1,2,4]Triazolo[3,4-b][1,3]benzothiazol-5,8-diol], the figures for the IC50 on PARP2 and at TNKS2 [1] were 0.24 µM and 3.1 µM, respectively. For the same compound, the “cell toxicity (WST-1)” value with HEK293T cells was “toxic in a dose-dependent manner”. `C[C@@H](COCCC(=O)N1CCN(c2ncc(C(F)(F)F)cn2)CC1)Nc1cn[nH]c(=O)c1C(F)(F)F` [RBN-2397]: the concentration for half-maximal inhibition (IC50) with PARP7 is […].

On to `COc1ccc(OC)c2c1sc1nnc(NC(=O)c3ccc(Cl)cc3)n12` [Compound 29], for which the IC50 is 7.9 µM at PARP15 (setting [6]) and greater than 10 µM against PARP10 [2]. As for `O=c1[nH]nc2c3c(cccc13)N=C(CN1Cc3ccccc3C1)N2` [E7449], the IC50 in the series on TNKS1/2 was 0.05 µM. `NC(=O)c1ccc(Oc2ccc(C(N)=O)cc2)cc1` [OUL35, reference compound]: on PARP10 [3], the “inhibition of auto-MARylation of overexpressed PARP10 in cells” value is reported as “did not observe a MAR-signal”. Turning to `c1ccc2c(c1)sc1nncn12` [Compound 2], the IC50 on PARP15 (setting [6]) is greater than 10 µM; on PARP2, 5.3 µM; at PARP10 [2] (standard assay (Tables 1-3), * value limited by the protein concentration used, > less than 50% inhibition, ≫ no inhibition at the concentration, read-out: PARP10 IC50) it was greater than 10 µM; at TNKS2 [1] it was 2.5 µM. Take `CC(C)c1ccc2c(c1)sc1nncn12` [Compound 6, 7-Isopropyl[1,2,4]triazolo[3,4-b][1,3]benzothiazole]: the IC50 at PARP2 came to 4.5 µM; on TNKS2 [1], 9.5 µM. Besides, the “cell toxicity (WST-1)” value with HEK293T cells is recorded as “toxic in a dose-dependent manner”. As for `CC#Cc1ccc2c(=O)[nH]c(CSc3ncccn3)nc2c1C` [ITK7], in the series with PARP11, the IC50 was 0.014 µM. For the compound `NC(=O)c1ccc(OCC2CCC2)cc1` [OUL238], the IC50 in the series with PARP10 [4] was 0.29 µM.

Turning to `CCOc1ccc(-c2nnc([C@H]3C[C@H](NC(=O)c4cccc5c4NCCN5)C3)n2-c2ccccc2F)nc1` [OM-153], the IC50 in the series on TNKS2 [5] is 0.002 µM. As to `COc1ccc(OC)c2c1sc1nnc(SC)n12` [Compound 28], the IC50 against PARP15 and on PARP10 [2] was greater than 10 µM throughout.

The values above are taken from PMC9884089 (Journal of Medicinal Chemistry, 2023).
